This is an account of results in ChEMBL document CHEMBL1909046, “DrugMatrix in vitro pharmacology data”.

Sequence of Cytochrome P450 2E1 (P05181 whole entry): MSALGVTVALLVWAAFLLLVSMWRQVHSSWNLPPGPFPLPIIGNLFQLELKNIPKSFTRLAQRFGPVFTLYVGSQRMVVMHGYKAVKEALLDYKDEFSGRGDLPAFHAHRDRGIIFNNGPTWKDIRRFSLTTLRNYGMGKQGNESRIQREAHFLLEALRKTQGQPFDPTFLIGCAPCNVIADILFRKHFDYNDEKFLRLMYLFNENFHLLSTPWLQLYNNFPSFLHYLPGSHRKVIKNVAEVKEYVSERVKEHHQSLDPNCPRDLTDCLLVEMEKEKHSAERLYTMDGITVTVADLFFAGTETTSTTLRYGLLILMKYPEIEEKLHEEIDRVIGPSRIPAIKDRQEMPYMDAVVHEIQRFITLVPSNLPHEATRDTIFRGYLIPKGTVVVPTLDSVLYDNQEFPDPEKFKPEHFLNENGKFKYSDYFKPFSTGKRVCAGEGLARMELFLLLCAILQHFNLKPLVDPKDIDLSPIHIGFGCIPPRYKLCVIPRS

For the first data set, the target named is Receptor tyrosine-protein kinase erbB-2 (Homo sapiens, UniProt P04626). Briefly: biochemical. The following applies: insect cells. Format: cell-based, Insect cells.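 Note: inhibition of HER2 kinase enzyme activity, measured with Poly(Glu:Tyr) as the phosphorylation substrate; in other assays of this panel Not Active means under 50% inhibition at 10 µM.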
Sequence of Receptor tyrosine-protein kinase erbB-2 (P04626 whole entry): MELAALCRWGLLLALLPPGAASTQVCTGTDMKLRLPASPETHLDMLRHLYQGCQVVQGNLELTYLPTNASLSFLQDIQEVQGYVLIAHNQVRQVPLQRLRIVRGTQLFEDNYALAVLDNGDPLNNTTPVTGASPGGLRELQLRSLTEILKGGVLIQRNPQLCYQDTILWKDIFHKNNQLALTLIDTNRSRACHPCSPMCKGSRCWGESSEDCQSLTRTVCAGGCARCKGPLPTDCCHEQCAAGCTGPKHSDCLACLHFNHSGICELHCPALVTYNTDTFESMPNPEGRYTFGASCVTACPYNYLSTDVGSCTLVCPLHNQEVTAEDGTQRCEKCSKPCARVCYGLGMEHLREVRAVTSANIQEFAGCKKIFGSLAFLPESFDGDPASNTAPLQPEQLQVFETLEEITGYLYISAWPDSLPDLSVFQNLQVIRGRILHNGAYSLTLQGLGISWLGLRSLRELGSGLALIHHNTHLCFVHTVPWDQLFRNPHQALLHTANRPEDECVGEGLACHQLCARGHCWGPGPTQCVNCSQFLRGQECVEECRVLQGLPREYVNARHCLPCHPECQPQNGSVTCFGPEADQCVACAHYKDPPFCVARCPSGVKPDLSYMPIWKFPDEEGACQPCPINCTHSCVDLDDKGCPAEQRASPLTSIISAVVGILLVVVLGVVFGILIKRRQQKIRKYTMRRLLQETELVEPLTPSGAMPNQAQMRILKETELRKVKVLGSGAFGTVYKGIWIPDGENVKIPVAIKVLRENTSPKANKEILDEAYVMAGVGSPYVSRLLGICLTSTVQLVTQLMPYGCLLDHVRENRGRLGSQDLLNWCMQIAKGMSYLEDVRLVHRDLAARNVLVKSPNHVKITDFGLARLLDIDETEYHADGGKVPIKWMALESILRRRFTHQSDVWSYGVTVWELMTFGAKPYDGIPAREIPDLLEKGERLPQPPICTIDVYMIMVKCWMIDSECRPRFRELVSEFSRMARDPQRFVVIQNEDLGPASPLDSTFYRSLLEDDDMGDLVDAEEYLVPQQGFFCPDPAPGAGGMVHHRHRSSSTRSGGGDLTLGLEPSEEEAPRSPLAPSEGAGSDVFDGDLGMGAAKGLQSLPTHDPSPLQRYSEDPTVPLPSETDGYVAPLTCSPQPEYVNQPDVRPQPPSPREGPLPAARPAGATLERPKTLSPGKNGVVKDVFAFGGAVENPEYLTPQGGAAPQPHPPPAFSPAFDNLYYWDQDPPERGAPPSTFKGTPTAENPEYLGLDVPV
In the case of `CC1(C)O[C@@H]2C[C@H]3[C@@H]4C[C@H](F)C5=CC(=O)C=C[C@]5(C)[C@@]4(F)[C@@H](O)C[C@]3(C)[C@]2(C(=O)CO)O1` [FLUOCINOLONE ACETONIDE], the IC50 result was “Not Active”.
Same read-out and setting: as for `CC1(C)O[C@@H]2C[C@H]3[C@@H]4C[C@H](F)C5=CC(=O)CC[C@]5(C)[C@H]4[C@@H](O)C[C@]3(C)[C@]2(C(=O)CO)O1` [FLURANDRENOLIDE], the entry is “Not Active”; as for `CN(C)c1ccc(C(=C2C=CC(=[N+](C)C)C=C2)c2ccc(N(C)C)cc2)cc1.[Cl-]` [GENTIAN VIOLET], “Not Active”.

For a further data set, the target named is Insulin receptor (Rattus norvegicus, UniProt P15127). Note: in other assays of this panel Not Active means under 50% inhibition at 10 µM.
Sequence of Insulin receptor (P15127 27-759 limits assumed): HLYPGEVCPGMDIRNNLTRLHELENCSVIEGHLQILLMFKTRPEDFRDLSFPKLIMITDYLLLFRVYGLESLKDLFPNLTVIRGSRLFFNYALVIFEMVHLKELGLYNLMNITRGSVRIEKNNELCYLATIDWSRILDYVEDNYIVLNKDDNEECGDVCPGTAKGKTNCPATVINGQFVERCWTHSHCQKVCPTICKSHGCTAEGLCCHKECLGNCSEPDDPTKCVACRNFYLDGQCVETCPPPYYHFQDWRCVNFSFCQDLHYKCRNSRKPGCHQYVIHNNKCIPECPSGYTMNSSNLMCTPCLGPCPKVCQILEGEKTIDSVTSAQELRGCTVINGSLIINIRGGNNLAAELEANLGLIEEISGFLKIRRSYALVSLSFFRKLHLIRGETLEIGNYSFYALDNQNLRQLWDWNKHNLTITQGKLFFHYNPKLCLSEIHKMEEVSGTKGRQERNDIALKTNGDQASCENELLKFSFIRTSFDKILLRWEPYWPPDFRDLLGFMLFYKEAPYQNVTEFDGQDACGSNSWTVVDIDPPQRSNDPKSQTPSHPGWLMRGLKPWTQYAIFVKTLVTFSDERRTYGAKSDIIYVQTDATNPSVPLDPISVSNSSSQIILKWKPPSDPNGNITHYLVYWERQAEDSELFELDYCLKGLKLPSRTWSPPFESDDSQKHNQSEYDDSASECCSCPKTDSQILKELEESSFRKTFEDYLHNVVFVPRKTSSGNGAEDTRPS
Sequence of Insulin receptor (P15127 764-1383 limits assumed): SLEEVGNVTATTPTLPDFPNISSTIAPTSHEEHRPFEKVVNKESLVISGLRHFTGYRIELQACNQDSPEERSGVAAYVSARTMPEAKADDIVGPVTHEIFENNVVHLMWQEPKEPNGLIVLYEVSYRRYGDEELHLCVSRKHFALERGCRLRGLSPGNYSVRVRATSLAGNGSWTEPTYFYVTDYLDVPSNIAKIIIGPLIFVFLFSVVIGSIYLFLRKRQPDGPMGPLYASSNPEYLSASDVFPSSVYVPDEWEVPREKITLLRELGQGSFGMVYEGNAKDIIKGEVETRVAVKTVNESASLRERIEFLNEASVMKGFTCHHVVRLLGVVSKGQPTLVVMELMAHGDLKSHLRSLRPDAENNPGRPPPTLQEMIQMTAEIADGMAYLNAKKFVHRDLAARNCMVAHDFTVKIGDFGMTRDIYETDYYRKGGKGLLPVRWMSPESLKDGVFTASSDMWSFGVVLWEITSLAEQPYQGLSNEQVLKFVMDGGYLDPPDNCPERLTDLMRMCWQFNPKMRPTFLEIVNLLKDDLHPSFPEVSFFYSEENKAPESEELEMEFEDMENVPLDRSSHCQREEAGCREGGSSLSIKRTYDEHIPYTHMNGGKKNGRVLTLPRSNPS
Assay: not given
The data set is classed as cell membranes, Wistar, Liver, Membrane.
Details: not given
For `CC1(C)O[C@@H]2C[C@H]3[C@@H]4C[C@H](F)C5=CC(=O)C=C[C@]5(C)[C@@]4(F)[C@@H](O)C[C@]3(C)[C@]2(C(=O)CO)O1` [FLUOCINOLONE ACETONIDE], the IC50 result is on record as “Not Active”.
Still for that read-out and setting: as for `CC1(C)O[C@@H]2C[C@H]3[C@@H]4C[C@H](F)C5=CC(=O)CC[C@]5(C)[C@H]4[C@@H](O)C[C@]3(C)[C@]2(C(=O)CO)O1` [FLURANDRENOLIDE], the entry is “Not Active”.
With `CN(C)c1ccc(C(=C2C=CC(=[N+](C)C)C=C2)c2ccc(N(C)C)cc2)cc1.[Cl-]` [GENTIAN VIOLET], the IC50 result was “Not Active”.

The next data set addresses T1, C-X-C chemokine receptor type 2 (Homo sapiens, UniProt P25025).
T1 sequence (P25025 whole entry): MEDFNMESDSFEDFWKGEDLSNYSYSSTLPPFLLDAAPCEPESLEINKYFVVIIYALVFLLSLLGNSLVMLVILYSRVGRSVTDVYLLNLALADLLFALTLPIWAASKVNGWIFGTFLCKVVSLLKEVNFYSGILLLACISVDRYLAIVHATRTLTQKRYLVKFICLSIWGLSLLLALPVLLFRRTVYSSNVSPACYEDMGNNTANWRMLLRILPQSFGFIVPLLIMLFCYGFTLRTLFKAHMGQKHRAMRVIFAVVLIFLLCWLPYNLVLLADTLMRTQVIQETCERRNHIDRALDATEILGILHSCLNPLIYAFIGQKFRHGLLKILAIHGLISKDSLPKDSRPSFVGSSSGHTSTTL
Assay: not given
The data set is classed as cell membranes, Membrane. The following applies: cho-k1.
On to `CC1(C)O[C@@H]2C[C@H]3[C@@H]4C[C@H](F)C5=CC(=O)C=C[C@]5(C)[C@@]4(F)[C@@H](O)C[C@]3(C)[C@]2(C(=O)CO)O1` [FLUOCINOLONE ACETONIDE], for which the IC50 entry is recorded as “Not Active”.
Consider `CC1(C)O[C@@H]2C[C@H]3[C@@H]4C[C@H](F)C5=CC(=O)CC[C@]5(C)[C@H]4[C@@H](O)C[C@]3(C)[C@]2(C(=O)CO)O1` [FLURANDRENOLIDE], for which the IC50 entry is on record as “Not Active”.
On the same count and under the same terms, as for `CN(C)c1ccc(C(=C2C=CC(=[N+](C)C)C=C2)c2ccc(N(C)C)cc2)cc1.[Cl-]` [GENTIAN VIOLET], the entry is “Not Active”.

Tested on in a further data set: not listed separately
Briefly: DRUGMATRIX: Phosphodiesterase PDE3 enzyme inhibition (substrate: [3H]cAMP + cAMP). Format: tissue-based, Homo sapiens. The settings on record: platelet; Not Active = under 50% inhibition at 10 µM.
`CC1(C)O[C@@H]2C[C@H]3[C@@H]4C[C@H](F)C5=CC(=O)C=C[C@]5(C)[C@@]4(F)[C@@H](O)C[C@]3(C)[C@]2(C(=O)CO)O1` [FLUOCINOLONE ACETONIDE]: the IC50 entry is reported as “Not Active” and the Ki entry was “Not Active”.
For the compound `CC1(C)O[C@@H]2C[C@H]3[C@@H]4C[C@H](F)C5=CC(=O)CC[C@]5(C)[C@H]4[C@@H](O)C[C@]3(C)[C@]2(C(=O)CO)O1` [FLURANDRENOLIDE], the IC50 entry is “Not Active” and the Ki result was “Not Active”.
`CN(C)c1ccc(C(=C2C=CC(=[N+](C)C)C=C2)c2ccc(N(C)C)cc2)cc1.[Cl-]` [GENTIAN VIOLET]: the IC50 entry is “Not Active” and the Ki result is “Not Active”.

Another data set addresses T2, Estrogen receptor (Homo sapiens, UniProt P03372).
T2 sequence (P03372 whole entry): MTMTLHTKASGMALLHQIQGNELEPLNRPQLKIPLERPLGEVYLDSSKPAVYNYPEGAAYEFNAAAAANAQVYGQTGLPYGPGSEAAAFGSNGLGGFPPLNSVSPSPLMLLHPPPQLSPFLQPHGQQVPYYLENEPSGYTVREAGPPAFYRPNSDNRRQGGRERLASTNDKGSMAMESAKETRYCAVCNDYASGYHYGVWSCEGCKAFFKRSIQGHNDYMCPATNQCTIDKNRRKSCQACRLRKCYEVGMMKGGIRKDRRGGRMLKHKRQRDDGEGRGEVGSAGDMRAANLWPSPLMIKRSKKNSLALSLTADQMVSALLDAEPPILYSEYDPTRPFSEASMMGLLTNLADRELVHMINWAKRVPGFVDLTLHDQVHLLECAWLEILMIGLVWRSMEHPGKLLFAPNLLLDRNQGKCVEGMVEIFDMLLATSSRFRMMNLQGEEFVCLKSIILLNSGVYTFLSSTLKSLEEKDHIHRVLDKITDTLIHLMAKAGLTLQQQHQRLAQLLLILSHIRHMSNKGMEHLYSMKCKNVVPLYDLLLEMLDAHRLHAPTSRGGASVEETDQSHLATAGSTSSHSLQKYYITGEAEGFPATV
Assay: not given
The settings on record: sf9.
In the case of `CC1(C)O[C@@H]2C[C@H]3[C@@H]4C[C@H](F)C5=CC(=O)C=C[C@]5(C)[C@@]4(F)[C@@H](O)C[C@]3(C)[C@]2(C(=O)CO)O1` [FLUOCINOLONE ACETONIDE], the IC50 entry is given as “Not Active”.
Still for that read-out and setting: as for `CC1(C)O[C@@H]2C[C@H]3[C@@H]4C[C@H](F)C5=CC(=O)CC[C@]5(C)[C@H]4[C@@H](O)C[C@]3(C)[C@]2(C(=O)CO)O1` [FLURANDRENOLIDE], the entry is “Not Active”.
Turning to `CN(C)c1ccc(C(=C2C=CC(=[N+](C)C)C=C2)c2ccc(N(C)C)cc2)cc1.[Cl-]` [GENTIAN VIOLET], the IC50 result is on record as “Not Active”.

The target of another data set is Melanocortin receptor 4 (Homo sapiens, UniProt P32245). Note: in other assays of this panel Not Active means under 50% inhibition at 10 µM.
Sequence of Melanocortin receptor 4 (P32245 whole entry): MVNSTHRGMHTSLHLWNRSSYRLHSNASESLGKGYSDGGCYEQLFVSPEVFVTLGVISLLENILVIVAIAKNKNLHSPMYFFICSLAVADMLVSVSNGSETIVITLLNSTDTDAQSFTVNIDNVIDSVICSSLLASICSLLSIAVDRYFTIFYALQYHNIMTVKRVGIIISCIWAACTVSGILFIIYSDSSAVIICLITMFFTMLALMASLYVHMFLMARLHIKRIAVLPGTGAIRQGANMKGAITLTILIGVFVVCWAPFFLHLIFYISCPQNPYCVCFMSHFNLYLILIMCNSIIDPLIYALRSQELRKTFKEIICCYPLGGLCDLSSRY
Assay: not given
The data set is classed as cell membranes, Membrane. The following applies: hek293.
`CC1(C)O[C@@H]2C[C@H]3[C@@H]4C[C@H](F)C5=CC(=O)C=C[C@]5(C)[C@@]4(F)[C@@H](O)C[C@]3(C)[C@]2(C(=O)CO)O1` [FLUOCINOLONE ACETONIDE]: the IC50 entry is “Not Active”.
Turning to `CC1(C)O[C@@H]2C[C@H]3[C@@H]4C[C@H](F)C5=CC(=O)CC[C@]5(C)[C@H]4[C@@H](O)C[C@]3(C)[C@]2(C(=O)CO)O1` [FLURANDRENOLIDE], the IC50 entry is “Not Active”.
As to `CN(C)c1ccc(C(=C2C=CC(=[N+](C)C)C=C2)c2ccc(N(C)C)cc2)cc1.[Cl-]` [GENTIAN VIOLET], the IC50 result is “Not Active”.

Tested on in another data set: not listed separately
Briefly: DRUGMATRIX: GABAA, Chloride Channel, TBOB radioligand binding (ligand: [3H] TBOB). The following applies: Not Active = under 50% inhibition at 10 µM. Format: cell membranes, Rattus norvegicus, Wistar, Cerebral cortex, Membrane.
Turning to `CC1(C)O[C@@H]2C[C@H]3[C@@H]4C[C@H](F)C5=CC(=O)C=C[C@]5(C)[C@@]4(F)[C@@H](O)C[C@]3(C)[C@]2(C(=O)CO)O1` [FLUOCINOLONE ACETONIDE], the IC50 result is listed as “Not Active” and the Ki entry was “Not Active”.
For the compound `CC1(C)O[C@@H]2C[C@H]3[C@@H]4C[C@H](F)C5=CC(=O)CC[C@]5(C)[C@H]4[C@@H](O)C[C@]3(C)[C@]2(C(=O)CO)O1` [FLURANDRENOLIDE], the IC50 entry is “Not Active” and the Ki entry is reported as “Not Active”.
With `CN(C)c1ccc(C(=C2C=CC(=[N+](C)C)C=C2)c2ccc(N(C)C)cc2)cc1.[Cl-]` [GENTIAN VIOLET], the IC50 result was “Not Active” and the Ki entry is “Not Active”.

Another data set addresses Cytochrome P450 2E1 (Homo sapiens, UniProt P05181).
Assay: not given
The settings on record: bti-tn-5b1-4.
On to `CC1(C)O[C@@H]2C[C@H]3[C@@H]4C[C@H](F)C5=CC(=O)C=C[C@]5(C)[C@@]4(F)[C@@H](O)C[C@]3(C)[C@]2(C(=O)CO)O1` [FLUOCINOLONE ACETONIDE], for which the IC50 entry is “Not Active” and the Ki entry is “Not Active”.
In the case of `CC1(C)O[C@@H]2C[C@H]3[C@@H]4C[C@H](F)C5=CC(=O)CC[C@]5(C)[C@H]4[C@@H](O)C[C@]3(C)[C@]2(C(=O)CO)O1` [FLURANDRENOLIDE], the IC50 entry is “Not Active” and the Ki result is “Not Active”.
Consider `CN(C)c1ccc(C(=C2C=CC(=[N+](C)C)C=C2)c2ccc(N(C)C)cc2)cc1.[Cl-]` [GENTIAN VIOLET], for which the IC50 entry is “Not Active” and the Ki result is “Not Active”.

For another data set, the target named is T3, Receptor-type tyrosine-protein phosphatase C (Homo sapiens, UniProt P08575).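 Note: inhibition of CD45 enzyme activity measured using DiFMUP as substrate; in other assays of this panel Not Active means under 50% inhibition at 10 µM.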
T3 sequence (P08575 whole entry): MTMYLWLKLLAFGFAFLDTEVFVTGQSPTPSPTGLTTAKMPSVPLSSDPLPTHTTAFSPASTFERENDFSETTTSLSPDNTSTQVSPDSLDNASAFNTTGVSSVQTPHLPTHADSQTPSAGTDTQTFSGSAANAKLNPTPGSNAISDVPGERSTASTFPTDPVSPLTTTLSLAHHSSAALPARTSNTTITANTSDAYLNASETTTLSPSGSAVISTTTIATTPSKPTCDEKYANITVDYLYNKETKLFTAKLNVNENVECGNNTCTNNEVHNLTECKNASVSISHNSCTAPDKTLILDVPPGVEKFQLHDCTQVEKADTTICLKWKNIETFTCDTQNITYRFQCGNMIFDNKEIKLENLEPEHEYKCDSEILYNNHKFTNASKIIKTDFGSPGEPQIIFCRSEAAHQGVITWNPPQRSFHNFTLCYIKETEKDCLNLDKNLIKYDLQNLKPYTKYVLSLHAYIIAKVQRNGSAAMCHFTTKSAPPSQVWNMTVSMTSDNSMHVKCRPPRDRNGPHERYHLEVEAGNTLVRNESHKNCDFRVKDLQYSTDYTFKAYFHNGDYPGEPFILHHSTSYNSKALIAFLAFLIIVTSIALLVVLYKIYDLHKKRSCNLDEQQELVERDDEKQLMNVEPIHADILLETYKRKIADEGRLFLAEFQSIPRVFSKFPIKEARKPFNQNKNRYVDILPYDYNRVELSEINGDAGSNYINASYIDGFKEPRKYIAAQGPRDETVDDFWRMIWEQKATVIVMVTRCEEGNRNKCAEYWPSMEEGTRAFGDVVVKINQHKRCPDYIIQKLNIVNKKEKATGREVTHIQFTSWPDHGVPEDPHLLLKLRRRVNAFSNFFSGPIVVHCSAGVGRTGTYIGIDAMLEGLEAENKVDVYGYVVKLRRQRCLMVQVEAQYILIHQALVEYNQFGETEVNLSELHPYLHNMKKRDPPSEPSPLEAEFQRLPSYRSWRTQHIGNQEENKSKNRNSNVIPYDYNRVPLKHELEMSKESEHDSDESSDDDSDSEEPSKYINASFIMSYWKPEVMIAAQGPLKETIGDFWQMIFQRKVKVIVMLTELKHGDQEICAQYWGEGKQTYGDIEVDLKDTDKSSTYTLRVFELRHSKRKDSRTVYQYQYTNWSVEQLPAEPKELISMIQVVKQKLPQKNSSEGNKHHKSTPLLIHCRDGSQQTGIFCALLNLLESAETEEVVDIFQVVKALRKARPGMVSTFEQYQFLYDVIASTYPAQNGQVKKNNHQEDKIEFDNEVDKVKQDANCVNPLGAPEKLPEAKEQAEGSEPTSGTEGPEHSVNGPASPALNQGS
Assay: not given
More on the design: species or system Escherichia coli.
Details: not given
As to `CC1(C)O[C@@H]2C[C@H]3[C@@H]4C[C@H](F)C5=CC(=O)C=C[C@]5(C)[C@@]4(F)[C@@H](O)C[C@]3(C)[C@]2(C(=O)CO)O1` [FLUOCINOLONE ACETONIDE], the IC50 entry is on record as “Not Active”.
As to `CC1(C)O[C@@H]2C[C@H]3[C@@H]4C[C@H](F)C5=CC(=O)CC[C@]5(C)[C@H]4[C@@H](O)C[C@]3(C)[C@]2(C(=O)CO)O1` [FLURANDRENOLIDE], the IC50 result was “Not Active”.
As for `CN(C)c1ccc(C(=C2C=CC(=[N+](C)C)C=C2)c2ccc(N(C)C)cc2)cc1.[Cl-]` [GENTIAN VIOLET], the IC50 result is “Not Active”.
